Experimental data: patent US4228187A, “Alkyl and cycloalkylthiophenylalkylaminoalkanols, their salts and the preparation thereof” (priority 1973, dated 1980)

Tests used:
BaCl2 = assay: Antispasmodic activity, BaCl2
Hist. = assay: Antispasmodic activity, Hist.
guinea pig atria's = assay: Protective activity against anoxia (guinea pig atria); design: key: scale: + = 10 to 20% increase in survival time; conditions: increase in survival time
From the text: (5) guinea pig atria's;
+ = increase in survival time of 10 to 20%

Ac.chol. = assay: Antispasmodic activity, Ac.chol.
DL50 mouse p.o. = conditions: in vivo, po, limits of reliability (p : 0.95) in brackets
From the text: (1) the limits of reliability (p : 0.95) are given in brackets.

[1] = tested on: spontaneously hypertensive rat; assay: Antihypertensive activity (spontaneously hypertensive rat); type: in vivo; conditions: 15 mg/kg per os
Protocol: (3) spontaneously hypertensive rat; 15 mg/kg per os;
± reduction of systolic pressure up to 10 mm of Hg
+ reduction of systolic pressure of 10 to 20 mm Hg
++ reduction of systolic pressure of at least 20 mm of Hg

[2] = tested on: peripheral vasodilatatory activity; assay: Vasodilatory effect after intraarterial injection in dog; type: in vivo
Protocol: (1) intraarterial injection in dog (5 animals) 10, 20 and 30 μg/kg.
(2) maximum vasodilatory effect in mm of Hg.
(3) and (4) expressed in seconds.

## 1-(4-methylthiophenyl)-2-n-octylaminopropanol [No 11]
BaCl2
  Antispasmodic activity CE 100, BaCl2: > 1000 μ g γ 60 ml
Hist.
  Antispasmodic activity CE 100, Hist.: 1000 μ g γ 60 ml
Guinea pig atria's
  Protective activity against anoxia: 0
Ac.chol.
  Antispasmodic activity CE 100, Ac.chol.: 1000 μ g γ 60 ml

## CCCCNC(C)C(O)c1ccc(SC(C)C)cc1 (stereo not shown) [No 1]
BaCl2
  Antispasmodic activity CE 100, BaCl2: 500 μ g γ 60 ml
Hist.
  Antispasmodic activity CE 100, Hist.: 500 μ g γ 60 ml
Guinea pig atria's
  Protective activity against anoxia: 0
DL50 mouse p.o.
  LD50: 680 mg/kg
Ac.chol.
  Antispasmodic activity CE 100, Ac.chol.: 1000 μ g γ 60 ml

## CC(C)NC(C)C(O)c1ccc(SC(C)C)cc1 (stereo not shown) [No 3]
DL50 mouse p.o.
  LD50: 630 mg/kg

## CCC(C)NC(C)C(O)c1ccc(SC(C)C)cc1 (stereo not shown) [No 4]
BaCl2
  Antispasmodic activity CE 100, BaCl2: 500 μ g γ 60 ml
Hist.
  Antispasmodic activity CE 100, Hist.: 1000 μ g γ 60 ml
Guinea pig atria's
  Protective activity against anoxia: 0
DL50 mouse p.o.
  LD50: 520 mg/kg
Ac.chol.
  Antispasmodic activity CE 100, Ac.chol.: 1000 μ g γ 60 ml

## CC(C)Sc1ccc(C(O)C(C)NC(C)(C)C)cc1 (stereo not shown) [No 5]
BaCl2
  Antispasmodic activity CE 100, BaCl2: 1000 μ g γ 60 ml
Hist.
  Antispasmodic activity CE 100, Hist.: > 1000 μ g γ 60 ml
Guinea pig atria's
  Protective activity against anoxia: 0
Ac.chol.
  Antispasmodic activity CE 100, Ac.chol.: 1000 μ g γ 60 ml

## CCCCNC(CC)C(O)c1ccc(SC(C)C)cc1 (stereo not shown) [No 6]
BaCl2
  Antispasmodic activity CE 100, BaCl2: 1000 μ g γ 60 ml
Hist.
  Antispasmodic activity CE 100, Hist.: 500 μ g γ 60 ml
Guinea pig atria's
  Protective activity against anoxia: 0
DL50 mouse p.o.
  LD50: > 1000 mg/kg
Ac.chol.
  Antispasmodic activity CE 100, Ac.chol.: 100 μ g γ 60 ml

## CCC(NC(C)C)C(O)c1ccc(SC(C)C)cc1 (stereo not shown) [No 7]
BaCl2
  Antispasmodic activity CE 100, BaCl2: 1000 μ g γ 60 ml
Hist.
  Antispasmodic activity CE 100, Hist.: 1000 μ g γ 60 ml
Guinea pig atria's
  Protective activity against anoxia: 0
Ac.chol.
  Antispasmodic activity CE 100, Ac.chol.: 200 μ g γ 60 ml

## CCCCCCCCNC(CC)C(O)c1ccc(SC(C)C)cc1 (stereo not shown) [No 8]
BaCl2
  Antispasmodic activity CE 100, BaCl2: 100 μ g γ 60 ml
Hist.
  Antispasmodic activity CE 100, Hist.: 500 μ g γ 60 ml
Guinea pig atria's
  Protective activity against anoxia: 0
[1]
  Anti-hypertensive activity: 0
DL50 mouse p.o.
  LD50: > 4000 mg/kg
Ac.chol.
  Antispasmodic activity CE 100, Ac.chol.: 500 μ g γ 60 ml

## CCC(C)NC(CC)C(O)c1ccc(SC(C)C)cc1 (stereo not shown) [No 9]
BaCl2
  Antispasmodic activity CE 100, BaCl2: 500 μ g γ 60 ml
Hist.
  Antispasmodic activity CE 100, Hist.: 1000 μ g γ 60 ml
Guinea pig atria's
  Protective activity against anoxia: ++ (increase in survival time of more than 25%)
Ac.chol.
  Antispasmodic activity CE 100, Ac.chol.: 200 μ g γ 60 ml

## CCCCNC(C)C(O)c1ccc(SC)cc1 (stereo not shown) [No 10]
BaCl2
  Antispasmodic activity CE 100, BaCl2: 1000 μ g γ 60 ml
Hist.
  Antispasmodic activity CE 100, Hist.: 1000 μ g γ 60 ml
Guinea pig atria's
  Protective activity against anoxia: + (increase in survival time of 10 to 20%)
[1]
  Anti-hypertensive activity: 0
DL50 mouse p.o.
  LD50: ~100 mg/kg
Ac.chol.
  Antispasmodic activity CE 100, Ac.chol.: 500 μ g γ 60 ml

## CCCCCCCCNC(C)C(O)c1ccc(SC)cc1 (stereo not shown) [No 11]
BaCl2
  Antispasmodic activity CE 100, BaCl2: 100 μ g γ 60 ml
Hist.
  Antispasmodic activity CE 100, Hist.: 200 μ g γ 60 ml
Guinea pig atria's
  Protective activity against anoxia: 0
[1]
  Anti-hypertensive activity: ++ (reduction of systolic pressure of at least 20 mm of Hg)
DL50 mouse p.o.
  LD50: 970 mg/kg
Ac.chol.
  Antispasmodic activity CE 100, Ac.chol.: 200 μ g γ 60 ml

## CCCCNC(C)C(O)c1ccc(SCC)cc1 (stereo not shown) [No 12]
BaCl2
  Antispasmodic activity CE 100, BaCl2: 1000 μ g γ 60 ml
Hist.
  Antispasmodic activity CE 100, Hist.: 1000 μ g γ 60 ml
Guinea pig atria's
  Protective activity against anoxia: 0
DL50 mouse p.o.
  LD50: 312 mg/kg
Ac.chol.
  Antispasmodic activity CE 100, Ac.chol.: 500 μ g γ 60 ml

## CCCCCCCCNC(C)C(O)c1ccc(SCC)cc1 (stereo not shown) [No 13]
BaCl2
  Antispasmodic activity CE 100, BaCl2: 100 μ g γ 60 ml
Hist.
  Antispasmodic activity CE 100, Hist.: 100 μ g γ 60 ml
Guinea pig atria's
  Protective activity against anoxia: 0
[1]
  Anti-hypertensive activity: ++ (reduction of systolic pressure of at least 20 mm of Hg)
DL50 mouse p.o.
  LD50: 1750 mg/kg
Ac.chol.
  Antispasmodic activity CE 100, Ac.chol.: 200 μ g γ 60 ml

## CCCCNC(C)C(O)c1ccc(SC2CCCCC2)cc1 (stereo not shown) [No 14]
BaCl2
  Antispasmodic activity CE 100, BaCl2: 200 μ g γ 60 ml
Hist.
  Antispasmodic activity CE 100, Hist.: 500 μ g γ 60 ml
Ac.chol.
  Antispasmodic activity CE 100, Ac.chol.: 100 μ g γ 60 ml

## CCCCCCCCNC(C)C(O)c1ccc(SC2CCCCC2)cc1 (stereo not shown) [No 15]
BaCl2
  Antispasmodic activity CE 100, BaCl2: 1000 μ g γ 60 ml
Hist.
  Antispasmodic activity CE 100, Hist.: 1000 μ g γ 60 ml
[1]
  Anti-hypertensive activity: ++ (reduction of systolic pressure of at least 20 mm of Hg)
DL50 mouse p.o.
  LD50: ~5000 mg/kg
Ac.chol.
  Antispasmodic activity CE 100, Ac.chol.: 500 μ g γ 60 ml

## CCC(C)NC(C)C(O)c1ccc(SC2CCCCC2)cc1 (stereo not shown) [No 16]
BaCl2
  Antispasmodic activity CE 100, BaCl2: 200 μ g γ 60 ml
Hist.
  Antispasmodic activity CE 100, Hist.: 500 μ g γ 60 ml
Ac.chol.
  Antispasmodic activity CE 100, Ac.chol.: 200 μ g γ 60 ml

## CCCCNC(CC)C(O)c1ccc(SCC)cc1 (stereo not shown) [No 19]
BaCl2
  Antispasmodic activity CE 100, BaCl2: 500 μ g γ 60 ml
Hist.
  Antispasmodic activity CE 100, Hist.: 1000 μ g γ 60 ml
Guinea pig atria's
  Protective activity against anoxia: 0
DL50 mouse p.o.
  LD50: 640 mg/kg
Ac.chol.
  Antispasmodic activity CE 100, Ac.chol.: 1000 μ g γ 60 ml

## CC(NC(C)(C)C)C(O)c1ccc(SC2CCCCC2)cc1 (stereo not shown) [No 21]
BaCl2
  Antispasmodic activity CE 100, BaCl2: 500 μ g γ 60 ml
Hist.
  Antispasmodic activity CE 100, Hist.: 500 μ g γ 60 ml
[1]
  Anti-hypertensive activity: 0
Ac.chol.
  Antispasmodic activity CE 100, Ac.chol.: 100 μ g γ 60 ml

## CC(C)CSc1ccc(C(O)C(C)NC(C)C)cc1 (stereo not shown) [No 22]
BaCl2
  Antispasmodic activity CE 100, BaCl2: 500 μ g γ 60 ml
Hist.
  Antispasmodic activity CE 100, Hist.: 500 μ g γ 60 ml
Guinea pig atria's
  Protective activity against anoxia: 0
DL50 mouse p.o.
  LD50: 1280 mg/kg
Ac.chol.
  Antispasmodic activity CE 100, Ac.chol.: 1000 μ g γ 60 ml

## CCC(C)NC(C)C(O)c1ccc(SCC(C)C)cc1 (stereo not shown) [No 23]
BaCl2
  Antispasmodic activity CE 100, BaCl2: 500 μ g γ 60 ml
Hist.
  Antispasmodic activity CE 100, Hist.: 200 μ g γ 60 ml
Guinea pig atria's
  Protective activity against anoxia: 0
Ac.chol.
  Antispasmodic activity CE 100, Ac.chol.: 200 μ g γ 60 ml

## CC(C)CSc1ccc(C(O)C(C)NC(C)(C)C)cc1 (stereo not shown) [No 24]
BaCl2
  Antispasmodic activity CE 100, BaCl2: 500 μ g γ 60 ml
Hist.
  Antispasmodic activity CE 100, Hist.: 200 μ g γ 60 ml
Ac.chol.
  Antispasmodic activity CE 100, Ac.chol.: 1000 μ g γ 60 ml

## CCCCNC(C)C(O)c1ccc(SCC(C)C)cc1 (stereo not shown) [No 25]
BaCl2
  Antispasmodic activity CE 100, BaCl2: 200 μ g γ 60 ml
Hist.
  Antispasmodic activity CE 100, Hist.: 200 μ g γ 60 ml
Guinea pig atria's
  Protective activity against anoxia: 0
DL50 mouse p.o.
  LD50: 1350 mg/kg
Ac.chol.
  Antispasmodic activity CE 100, Ac.chol.: 100 μ g γ 60 ml

## CCCCCCCCNC(C)C(O)c1ccc(SCC(C)C)cc1 (stereo not shown) [No 26]
BaCl2
  Antispasmodic activity CE 100, BaCl2: 200 μ g γ 60 ml
Hist.
  Antispasmodic activity CE 100, Hist.: 200 μ g γ 60 ml
Guinea pig atria's
  Protective activity against anoxia: 0
DL50 mouse p.o.
  LD50: > 4000 mg/kg
Ac.chol.
  Antispasmodic activity CE 100, Ac.chol.: 200 μ g γ 60 ml

## CCC(NC(C)C)C(O)c1ccc(SC2CCCCC2)cc1 (stereo not shown) [No 27]
BaCl2
  Antispasmodic activity CE 100, BaCl2: 200 μ g γ 60 ml
Hist.
  Antispasmodic activity CE 100, Hist.: 500 μ g γ 60 ml
Ac.chol.
  Antispasmodic activity CE 100, Ac.chol.: 200 μ g γ 60 ml

## CCCCCCNC(C)C(O)c1ccc(SC(C)C)cc1 (stereo not shown) [No 28]
DL50 mouse p.o.
  LD50: 1450 mg/kg

## CCCCCCCNC(C)C(O)c1ccc(SC(C)C)cc1 (stereo not shown) [No 29]
DL50 mouse p.o.
  LD50: ~2400 mg/kg

## CCCCCCCCNC(C)C(O)c1ccc(SC2CCCC2)cc1 (stereo not shown) [No 32]
[1]
  Anti-hypertensive activity: ++ (reduction of systolic pressure of at least 20 mm of Hg)
DL50 mouse p.o.
  LD50: > 4000 mg/kg

## CC(C(O)c1ccc(SC2CCCCC2)cc1)N1CCCCC1 (stereo not shown) [No 33]
BaCl2
  Antispasmodic activity CE 100, BaCl2: > 1000 μ g γ 60 ml
Hist.
  Antispasmodic activity CE 100, Hist.: > 1000 μ g γ 60 ml
Ac.chol.
  Antispasmodic activity CE 100, Ac.chol.: > 1000 μ g γ 60 ml

## CCC(C(O)c1ccc(SC2CCCCC2)cc1)N1CCCCC1 (stereo not shown) [No 34]
BaCl2
  Antispasmodic activity CE 100, BaCl2: 200 μ g γ 60 ml
Hist.
  Antispasmodic activity CE 100, Hist.: 1000 μ g γ 60 ml
Ac.chol.
  Antispasmodic activity CE 100, Ac.chol.: 100 μ g γ 60 ml

## CC(Cc1ccccc1)NC(C)C(O)c1ccc(SC(C)C)cc1 (stereo not shown) [No 35]
BaCl2
  Antispasmodic activity CE 100, BaCl2: 500 μ g γ 60 ml
Hist.
  Antispasmodic activity CE 100, Hist.: 200 μ g γ 60 ml
[1]
  Anti-hypertensive activity: ± (reduction of systolic pressure up to 10 mm of Hg)
DL50 mouse p.o.
  LD50: 2100 mg/kg
Ac.chol.
  Antispasmodic activity CE 100, Ac.chol.: 500 μ g γ 60 ml

## COc1ccc(Cc2nccc3cc(OC)c(OC)cc23)cc1OC [papaverine, reference compound]
[2]; 10 μg/kg
  Amplitude (maximum vasodilatory effect): 40 mm of Hg
  Duration of effect: 43 s
[2]; 20 μg/kg
  Amplitude (maximum vasodilatory effect): 51 mm of Hg
  Duration of effect: 45 s
[2]; 30 μg/kg
  Amplitude (maximum vasodilatory effect): 54 mm of Hg
  Duration of effect: 47 s
